Our source for the IC50 values is patent US9914730B2, “Azaquinazoline inhibitors of Atypical protein Kinase C” (Ignyta, Inc., priority 2012, dated 2018).

In the assay the target is T1, full-length human PKCι (Homo sapiens, UniProt P41743).
T1 construct: Recombinant, full-length human PKCι expressed in Sf21 insect cells is also commercially available; purchased; host or cells: Sf21 insect cells
T1 sequence (P41743 1-596): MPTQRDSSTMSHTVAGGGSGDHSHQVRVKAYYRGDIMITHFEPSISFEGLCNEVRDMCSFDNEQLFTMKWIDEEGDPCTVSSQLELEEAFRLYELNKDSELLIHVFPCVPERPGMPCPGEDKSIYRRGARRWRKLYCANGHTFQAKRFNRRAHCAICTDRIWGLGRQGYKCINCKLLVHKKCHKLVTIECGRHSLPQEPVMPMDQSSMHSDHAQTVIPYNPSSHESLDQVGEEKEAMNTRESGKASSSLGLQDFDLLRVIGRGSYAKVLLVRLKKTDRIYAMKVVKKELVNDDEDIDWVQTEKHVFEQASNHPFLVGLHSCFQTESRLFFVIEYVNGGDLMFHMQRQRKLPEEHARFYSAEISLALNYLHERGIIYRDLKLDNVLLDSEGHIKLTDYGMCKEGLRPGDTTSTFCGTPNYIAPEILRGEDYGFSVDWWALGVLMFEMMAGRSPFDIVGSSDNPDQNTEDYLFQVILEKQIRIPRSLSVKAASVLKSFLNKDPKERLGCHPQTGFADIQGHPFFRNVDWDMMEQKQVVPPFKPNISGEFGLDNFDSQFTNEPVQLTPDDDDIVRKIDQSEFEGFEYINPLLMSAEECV
In words: PKCι IC50 IMAP assay, full-length PKCι at 150 μM ATP. The assay is classed as biochemical. The conditions noted are these: read-out: IC50 in IMAP assay against full length PKCi at 150 μM ATP. In short, it runs like this:
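Full-length hPKCι (Sf21) ~15 pM; 5FAM-peptide 100 nM; ATP 150 μM (5× KM^APP); tris pH7.5/MgCl2/EGTA/DTT/Triton, 4% DMSO; 60 min RT; IMAP stop, 2 h; FP 485/530 nm; IC50 from % inhibition curves.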
As to `C[C@H]1CN(c2nc(-c3ccnc(Nc4ccccc4F)c3)nc3cncc(C4CC4)c23)CCN1` [Example 691, {4-[5-Cyclopropyl-4-((S)-3-methyl-piperazin-1-yl)-pyrido[3,4-d]pyrimidin-2-yl]-pyridin-2-yl}-(2-fluoro-phenyl)-amine], the IC50 was less than 0.1 µM. Consider `C[C@H]1CN(c2nc(-c3ccnc(Nc4c(F)cccc4F)c3)nc3cncc(C4CC4)c23)CCN1` [Example 692, {4-[5-Cyclopropyl-4-((S)-3-methyl-piperazin-1-yl)-pyrido[3,4-d]pyrimidin-2-yl]-pyridin-2-yl}-(2,6-difluoro-phenyl)-amine], for which the IC50 was less than 0.1 µM.

Consider `C[C@H]1CN(c2nc(-c3ccnc(Nc4ccc(F)cc4)c3)nc3cncc(C4CC4)c23)CCN1` [Example 693, {4-[5-Cyclopropyl-4-((S)-3-methyl-piperazin-1-yl)-pyrido[3,4-d]pyrimidin-2-yl]-pyridin-2-yl}-(4-fluoro-phenyl)-amine], for which the IC50 is less than 0.1 µM. The value for `C[C@H]1CN(c2nc(-c3ccnc(Nc4nc(F)ccc4F)c3)nc3cncc(C4CC4)c23)CCN1` [Example 694, {4-[5-Cyclopropyl-4-((S)-3-methyl-piperazin-1-yl)-pyrido[3,4-d]pyrimidin-2-yl]-pyridin-2-yl}-(3,6-difluoro-pyridin-2-yl)-amine] was less than 0.1 µM.

In the case of `NCC1CCN(c2nc(-c3ccnc(Nc4c(F)cccc4F)c3)nc3cncc(C4CC4)c23)CC1` [Example 696, {4-[4-(4-Aminomethyl-piperidin-1-yl)-5-cyclopropyl-pyrido[3,4-d]pyrimidin-2-yl]-pyridin-2-yl}-(2,6-difluoro-phenyl)-amine], the IC50 was less than 0.1 µM. The value for `c1ccc(Nc2cc(-c3nc(NC[C@@H]4CCCN4)c4c(C5CC5)cncc4n3)ccn2)cc1` [Example 697, [5-Cyclopropyl-2-(2-phenylamino-pyridin-4-yl)-pyrido[3,4-d]pyrimidin-4-yl]-(S)-1-pyrrolidin-2-ylmethyl-amine] was 0.1 to 1 µM; that for `Fc1cccc(F)c1Nc1cc(-c2nc(NC[C@@H]3CCCN3)c3c(C4CC4)cncc3n2)ccn1` [Example 698, {5-Cyclopropyl-2-[2-(2,6-difluoro-phenylamino)-pyridin-4-yl]-pyrido[3,4-d]pyrimidin-4-yl}-(S)-1-pyrrolidin-2-ylmethyl-amine] was 0.1 to 1 µM; that for `Fc1ccc(Nc2cc(-c3nc(N4CCCNCC4)c4c(C5CC5)cncc4n3)ccn2)cc1` [Example 699, [4-(5-Cyclopropyl-4-[1,4]diazepan-1-yl-pyrido[3,4-d]pyrimidin-2-yl)-pyridin-2-yl]-(4-fluoro-phenyl)-amine] was less than 0.1 µM.

Take `c1cc(-c2nc(N3CCNCC3)c3c(C4CC4)cncc3n2)cc(NC23CC(C2)C3)n1` [Example 700, Bicyclo[1.1.1]pent-1-yl-[4-(5-cyclopropyl-4-piperazin-1-yl-pyrido[3,4-d]pyrimidin-2-yl)-pyridin-2-yl]-amine]: the IC50 was less than 0.1 µM. The value for `Fc1c(-c2nc(N3CCNCC3)c3c(C4CC4)cncc3n2)ccnc1Nc1ccccc1` [Example 701, [4-(5-Cyclopropyl-4-piperazin-1-yl-pyrido[3,4-d]pyrimidin-2-yl)-3-fluoro-pyridin-2-yl]-phenyl-amine] was 10 to 40 µM. Then `Fc1cccc(F)c1Nc1cc(-c2nc(N3CCCNCC3)c3c(C4CC4)cncc3n2)ccn1` [Example 702, [4-(5-Cyclopropyl-4-[1,4]diazepan-1-yl-pyrido[3,4-d]pyrimidin-2-yl)-pyridin-2-yl]-(2,6-difluoro-phenyl)-amine], with 0.1 to 1 µM. The value for `F[C@H]1C[C@@H](Nc2cc(-c3nc(N4CCNCC4)c4c(C5CC5)cncc4n3)ccn2)C1` [Example 703, (+/−)cis-[4-(5-Cyclopropyl-4-piperazin-1-yl-pyrido[3,4-d]pyrimidin-2-yl)-pyridin-2-yl]-(3-fluoro-cyclobutyl)-amine] was less than 0.1 µM; that for `Fc1cnc(Nc2cc(-c3nc(N4CCNCC4)c4c(C5CC5)cncc4n3)ccn2)c(F)c1` [Example 704, [4-(5-Cyclopropyl-4-piperazin-1-yl-pyrido[3,4-d]pyrimidin-2-yl)-pyridin-2-yl]-(3,5-difluoro-pyridin-2-yl)-amine] was less than 0.1 µM; that for `Fc1cncc(F)c1Nc1cc(-c2nc(N3CCNCC3)c3c(C4CC4)cncc3n2)ccn1` [Example 705, [4-(5-Cyclopropyl-4-piperazin-1-yl-pyrido[3,4-d]pyrimidin-2-yl)-pyridin-2-yl]-(3,5-difluoro-pyridin-4-yl)-amine] was less than 0.1 µM. With `FC(F)(F)C(Nc1cc(-c2nc(N3CCNCC3)c3c(C4CC4)cncc3n2)ccn1)c1ccccc1` (centres unmarked) [Example 706, [4-(5-Cyclopropyl-4-piperazin-1-yl-pyrido[3,4-d]pyrimidin-2-yl)-pyridin-2-yl]-(2,2,2-trifluoro-1-phenyl-ethyl)-amine], the IC50 lay in the range of 0.1 to 1 µM. Take `CNC(=O)C1CCCN(c2nc(-c3ccnc(Nc4c(F)cccc4F)c3)nc3cncc(C4CC4)c23)C1` (centres unmarked) [Example 707, 1-{5-Cyclopropyl-2-[2-(2,6-difluoro-phenylamino)-pyridin-4-yl]-pyrido[3,4-d]pyrimidin-4-yl}-piperidine-3-carboxylic acid methylamide]: the concentration for half-maximal inhibition (IC50) was 10 to 40 µM. Then `NC1CCN(c2nc(-c3ccnc(Nc4c(F)cccc4F)c3)nc3cncc(C4CC4)c23)C1` (centres unmarked) [Example 708, {4-[4-(3-Amino-pyrrolidin-1-yl)-5-cyclopropyl-pyrido[3,4-d]pyrimidin-2-yl]-pyridin-2-yl}-(2,6-difluoro-phenyl)-amine], with 0.1 to 1 µM. Consider `O=C(O)Cc1ccc(Nc2cc(-c3nc(N4CCNCC4)c4c(C5CC5)cncc4n3)ccn2)cc1` [Example 709, {4-[4-(5-Cyclopropyl-4-piperazin-1-yl-pyrido[3,4-d]pyrimidin-2-yl)-pyridin-2-ylamino]-phenyl}-acetic acid], for which the IC50 lay in the range of 0.1 to 1 µM.

Consider `CN1CCN(c2cccc(Nc3cc(-c4nc(N5CCCCC5)c5c(C6CC6)cncc5n4)ccn3)c2)CC1` [Example 710], for which the IC50 lay within 0.1 to 1 µM. The value for `N#Cc1cccc(Nc2cc(-c3nc(N4CC[C@H](O)[C@H](O)C4)c4c(C5CC5)cncc4n3)ccn2)c1` [Example 711, 3-{4-[5-Cyclopropyl-4-((3R,4S)-3,4-dihydroxy-piperidin-1-yl)-pyrido[3,4-d]pyrimidin-2-yl]-pyridin-2-ylamino}-benzonitrile] was 0.1 to 1 µM; that for `c1ccc2c(c1)OCCC2Nc1cc(-c2nc(N3CCNCC3)c3c(C4CC4)cncc3n2)ccn1` (centres unmarked) [Example 712, Chroman-4-yl-[4-(5-cyclopropyl-4-piperazin-1-yl-pyrido[3,4-d]pyrimidin-2-yl)-pyridin-2-yl]-amine] was less than 0.1 µM. With `CC(=O)NC1CCN(c2nc(-c3ccnc(Nc4c(F)cccc4F)c3)nc3cncc(C4CC4)c23)C1` (centres unmarked) [Example 713, N-(1-{5-Cyclopropyl-2-[2-(2,6-difluoro-phenylamino)-pyridin-4-yl]-pyrido[3,4-d]pyrimidin-4-yl}-pyrrolidin-3-yl)-acetamide], the IC50 was 0.1 to 1 µM. Turning to `CC(C)c1ccc(Nc2cc(-c3nc(N4CCNCC4)c4c(C5CC5)cncc4n3)ccn2)c(F)c1` [Example 714, [4-(5-Cyclopropyl-4-piperazin-1-yl-pyrido[3,4-d]pyrimidin-2-yl)-pyridin-2-yl]-(2-fluoro-4-isopropyl-phenyl)-amine], the IC50 was less than 0.1 µM. Take `CCc1ccc(F)c(Nc2cc(-c3nc(N4CCNCC4)c4c(C5CC5)cncc4n3)ccn2)c1` [Example 715, [4-(5-Cyclopropyl-4-piperazin-1-yl-pyrido[3,4-d]pyrimidin-2-yl)-pyridin-2-yl]-(5-ethyl-2-fluoro-phenyl)-amine]: the IC50 is less than 0.1 µM. The value for `CC(C)c1ccc(F)c(Nc2cc(-c3nc(N4CCNCC4)c4c(C5CC5)cncc4n3)ccn2)c1` [Example 716, [4-(5-Cyclopropyl-4-piperazin-1-yl-pyrido[3,4-d]pyrimidin-2-yl)-pyridin-2-yl]-(2-fluoro-5-isopropyl-phenyl)-amine] was less than 0.1 µM; that for `CCc1ccc(Nc2cc(-c3nc(N4CCNCC4)c4c(C5CC5)cncc4n3)ccn2)c(F)c1` [Example 717, [4-(5-Cyclopropyl-4-piperazin-1-yl-pyrido[3,4-d]pyrimidin-2-yl)-pyridin-2-yl]-(4-ethyl-2-fluoro-phenyl)-amine] was less than 0.1 µM.

Turning to `CC1(C)CN(c2nc(-c3ccnc(Nc4c(F)cccc4F)c3)nc3cncc(C4CC4)c23)CCN1` [Example 718, {4-[5-Cyclopropyl-4-(3,3-dimethyl-piperazin-1-yl)-pyrido[3,4-d]pyrimidin-2-yl]-pyridin-2-yl}-(2,6-difluoro-phenyl)-amine], the IC50 is less than 0.1 µM. The value for `CC1(C)CN(c2nc(-c3ccnc(Nc4ccc(F)cc4)c3)nc3cncc(C4CC4)c23)CCN1` [Example 719] was less than 0.1 µM; that for `CN1CCN(c2cccc(Nc3cc(-c4nc(N5CCC[C@@H](O)C5)c5c(C6CC6)cncc5n4)ccn3)c2)CC1` [Example 720, (R)-1-(5-Cyclopropyl-2-{2-[3-(4-methyl-piperazin-1-yl)-phenylamino]-pyridin-4-yl}-pyrido[3,4-d]pyrimidin-4-yl)-piperidin-3-ol] was less than 0.1 µM.
